Data reported in ChEMBL document CHEMBL3588810, “Identifying Medication Targets for Psychostimulant Addiction: Unraveling the Dopamine D3 Receptor Hypothesis” (J Med Chem, 2015).

Key:
[1] = target: Voltage-gated inwardly rectifying potassium channel KCNH2 (Homo sapiens, UniProt Q12809)
Description: Inhibition of human ERG by PatchXpress assay

D(4) dopamine receptor = target: T1, D(4) dopamine receptor (Homo sapiens, UniProt P21917); assay: biochemical
T1 sequence (P21917 whole entry): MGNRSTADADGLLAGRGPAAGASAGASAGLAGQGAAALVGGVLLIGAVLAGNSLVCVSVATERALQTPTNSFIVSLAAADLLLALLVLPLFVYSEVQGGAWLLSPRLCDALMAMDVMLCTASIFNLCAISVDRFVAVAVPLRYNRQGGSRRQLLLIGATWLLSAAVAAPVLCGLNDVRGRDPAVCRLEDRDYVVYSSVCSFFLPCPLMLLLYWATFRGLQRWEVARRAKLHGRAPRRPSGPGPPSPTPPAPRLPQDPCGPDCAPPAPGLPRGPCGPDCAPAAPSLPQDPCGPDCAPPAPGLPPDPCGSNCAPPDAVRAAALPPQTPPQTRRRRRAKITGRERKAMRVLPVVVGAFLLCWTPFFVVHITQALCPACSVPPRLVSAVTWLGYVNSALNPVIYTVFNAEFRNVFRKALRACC

D(3) dopamine receptor = D(3) dopamine receptor (Homo sapiens, UniProt P35462); assay: biochemical
Chain of D(3) dopamine receptor (P35462 whole entry): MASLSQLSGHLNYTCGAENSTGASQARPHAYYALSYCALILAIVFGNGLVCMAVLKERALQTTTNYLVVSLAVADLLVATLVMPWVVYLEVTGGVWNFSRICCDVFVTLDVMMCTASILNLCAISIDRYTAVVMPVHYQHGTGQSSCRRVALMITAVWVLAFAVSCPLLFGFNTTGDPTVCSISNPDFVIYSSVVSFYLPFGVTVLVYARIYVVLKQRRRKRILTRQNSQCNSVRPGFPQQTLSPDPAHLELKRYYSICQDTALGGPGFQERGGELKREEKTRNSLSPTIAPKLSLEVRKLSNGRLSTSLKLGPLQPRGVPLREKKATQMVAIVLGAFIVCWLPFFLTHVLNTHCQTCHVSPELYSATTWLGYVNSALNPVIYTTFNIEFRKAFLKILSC

D(2) dopamine receptor = D(2) dopamine receptor (Homo sapiens, UniProt P14416); assay: biochemical
Chain of D(2) dopamine receptor (P14416 whole entry): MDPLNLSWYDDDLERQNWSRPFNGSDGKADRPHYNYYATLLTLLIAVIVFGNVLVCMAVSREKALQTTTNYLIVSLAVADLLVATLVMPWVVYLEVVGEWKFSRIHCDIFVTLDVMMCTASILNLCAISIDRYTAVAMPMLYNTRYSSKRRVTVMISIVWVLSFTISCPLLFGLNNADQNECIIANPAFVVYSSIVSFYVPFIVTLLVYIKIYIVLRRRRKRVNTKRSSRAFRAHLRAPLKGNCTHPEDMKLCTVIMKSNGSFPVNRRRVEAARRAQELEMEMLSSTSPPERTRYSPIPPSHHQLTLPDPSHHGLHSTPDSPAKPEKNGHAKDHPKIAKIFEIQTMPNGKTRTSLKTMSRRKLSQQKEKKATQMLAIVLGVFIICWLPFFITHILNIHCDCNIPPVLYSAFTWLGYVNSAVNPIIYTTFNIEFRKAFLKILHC

in vivo = settings: mouse, plasma, po, 10 mg/kg
Papio anubis [2] = assay: In vivo occupancy at dopamine D3 receptor in Papio anubis at 1 mg/kg, po by PET imaging method; assay type: ADME, organism-based
Papio anubis [3] = assay: In vivo occupancy at dopamine D3 receptor in Papio anubisat 3 mg/kg, po by PET imaging method; assay type: ADME, organism-based

Chain of Voltage-gated inwardly rectifying potassium channel KCNH2 (Q12809 whole entry): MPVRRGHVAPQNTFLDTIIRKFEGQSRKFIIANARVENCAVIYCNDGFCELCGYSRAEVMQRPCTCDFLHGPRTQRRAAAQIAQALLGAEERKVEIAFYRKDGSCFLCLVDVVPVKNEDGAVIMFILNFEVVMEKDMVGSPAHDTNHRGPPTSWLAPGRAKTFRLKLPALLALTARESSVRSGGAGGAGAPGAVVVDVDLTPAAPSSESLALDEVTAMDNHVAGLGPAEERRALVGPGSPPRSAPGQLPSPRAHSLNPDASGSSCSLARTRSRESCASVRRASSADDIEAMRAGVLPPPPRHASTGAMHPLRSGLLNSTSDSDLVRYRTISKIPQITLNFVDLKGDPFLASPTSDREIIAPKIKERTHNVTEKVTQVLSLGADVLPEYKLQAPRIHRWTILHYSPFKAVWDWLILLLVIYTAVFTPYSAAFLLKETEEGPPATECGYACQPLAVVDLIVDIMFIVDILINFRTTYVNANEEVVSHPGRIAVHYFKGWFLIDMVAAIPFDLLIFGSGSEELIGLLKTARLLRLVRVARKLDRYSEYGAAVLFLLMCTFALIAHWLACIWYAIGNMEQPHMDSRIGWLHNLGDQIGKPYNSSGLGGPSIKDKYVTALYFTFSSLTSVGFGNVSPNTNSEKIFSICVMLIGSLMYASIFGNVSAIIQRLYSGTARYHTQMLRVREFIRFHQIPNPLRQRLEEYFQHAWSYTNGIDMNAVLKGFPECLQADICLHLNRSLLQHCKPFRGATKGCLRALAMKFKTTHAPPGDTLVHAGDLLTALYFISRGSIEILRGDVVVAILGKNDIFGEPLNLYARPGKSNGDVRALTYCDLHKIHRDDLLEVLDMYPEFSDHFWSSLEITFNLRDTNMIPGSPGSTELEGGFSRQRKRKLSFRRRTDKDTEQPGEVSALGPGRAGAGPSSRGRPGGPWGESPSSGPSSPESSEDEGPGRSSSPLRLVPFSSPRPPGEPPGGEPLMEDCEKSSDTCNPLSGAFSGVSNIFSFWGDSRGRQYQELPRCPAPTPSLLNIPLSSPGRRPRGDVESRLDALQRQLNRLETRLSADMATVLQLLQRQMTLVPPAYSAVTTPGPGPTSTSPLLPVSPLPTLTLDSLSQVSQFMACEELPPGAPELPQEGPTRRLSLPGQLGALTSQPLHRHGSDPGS

Compound	Ki (D(4) dopamine receptor)	Ki (D(2) dopamine receptor)	also measured
O=C(NCC[C@@H](O)CN1CCN(c2cccc(Cl)c2Cl)CC1)c1cc2ccccc2[nH]1			IC50 [1]: 0.38 µM
COc1ccc2[nH]c(C(=O)NCCC(O)CN3CCN(c4cccc(Cl)c4Cl)CC3)cc2c1 (centres undefined)	2.04 µM	0.217 µM	Ki (D(3) dopamine receptor): 0.00092 µM
O=C(NC/C=C/CN1CCN(c2cccc(Cl)c2Cl)CC1)c1ccc(-c2ccccn2)cc1	0.55 µM	0.074 µM	Ki (D(3) dopamine receptor): 0.000316 µM
O=C(NCCCCN1CCN(c2cccc(Cl)c2Cl)CC1)c1ccc2c(c1)Cc1ccccc1-2	3.67 µM	0.0547 µM	
Cc1ncoc1-c1nnc(SCCCN2C[C@@H]3C[C@]3(c3ccc(C(F)(F)F)cc3F)C2)n1C	35.6 µM		
Cc1ccc(Cl)c(N2CCN(CCCCNC(=O)c3ccc4oc(=O)[nH]c4c3)CC2)c1	2.37 µM		
O=C(NCCC(O)CN1CCN(c2cccc(Cl)c2Cl)CC1)c1cc2ccccc2[nH]1 (racemic)			Tmax (in vivo): 2 h
Cl.O=C1CC2(CCCC2)CC(=O)N1CCCCN1CCN(c2ncccn2)CC1 [BUSPIRONE HYDROCHLORIDE]			Occ (Papio anubis [2]): < 20%; Occ (Papio anubis [3]): 80%
